Experimental data reported in ChEMBL document CHEMBL5325407, “Structure-based development of potent Plasmodium falciparum M1 and M17 aminopeptidase selective and dual inhibitors via S1'-region optimisation” (Eur J Med Chem, 2023).
≈ marks a conversion by molar mass, not a printed value. Calls of active or inactive are those of the source. The rule behind the calls is not given here.

Legend:
[1] = (§1) Inhibition of C-terminal 6-His tagged Plasmodium falciparum M17 aminopeptidase (85 to 605 residues) expressed in Escherichia coli BL21 (DE3) cells using H-Leu-NHMec as substrate assessed as apparent inhibition constant preincubated for 10 mins followed by substrate addition by spectrofluorimetric analysis; details: read-out: Ki(app)
[2] = as §1, with “M1” for “M17”, “(195” for “(85”, “1085” for “605”, “BL21(DE3)” for “BL21 (DE3)”; details: read-out: Ki(app)
Plasmodium falciparum [3] = assay: Antiplasmodial activity against drug-sensitive Plasmodium falciparum 3D7 infected in Red blood cell assessed as growth inhibition measured after 72 hrs by LDH assay; type: functional, organism-based; details: 3D7, Erythrocyte
[4] = Inhibition of TEV-fused Plasmodium falciparum M1 aminopeptidase (192 to 1085 residues) expressed in Escherichia coli Rosetta 2 (DE3) cells using alanine para-nitroanilide as substrate assessed as apparent inhibition constant measured after 30 mins by spectrophotometric analysis; details: read-out: Ki(app)
[5] = Kinetic solubility of the compound in phosphate buffer at pH 6.5 measured after 30 mins by nephelometric analysis; type: physicochemical; details: read-out: Kinetic_solubility
[6] = Inhibition of TEV-fused Plasmodium falciparum M17 aminopeptidase (192 to 1085 residues) expressed in Escherichia coli Rosetta 2 (DE3) cells using alanine para-nitroanilide as substrate assessed as apparent inhibition constant measured after 30 mins by spectrophotometric analysis; details: read-out: Ki(app)
[7] = Metabolic stability in mouse liver microsomes assessed as half life measured for 60 mins in presence of NADPH; type: ADME, Microsome
[8] = Kinetic solubility of the compound in 0.01 M HCL at pH 2.0 measured after 30 mins by nephelometric analysis; type: physicochemical; details: read-out: Kinetic_solubility
[9] = Metabolic stability in human liver microsomes assessed as half life measured for 60 mins in presence of NADPH; type: ADME, Microsome
[10] = as §1, with “M1” for “M17”, “(195” for “(85”, “1085” for “605”, “BL21(DE3)” for “BL21 (DE3)”, “initial” for “apparent”
Plasmodium falciparum [11] = assay: Inhibition of C-terminal 6-His tagged Plasmodium falciparum M1 aminopeptidase (195 to 1085 residues) expressed in Escherichia coli BL21(DE3) cells using H-Leu-NHMec as substrate at less than 500 nM preincubated for 10 mins followed by substrate addition by spectrofluorimetric analysis
Plasmodium falciparum [12] = assay: Inhibition of C-terminal 6-His tagged Plasmodium falciparum M17 aminopeptidase (85 to 605 residues) expressed in Escherichia coli BL21 (DE3) cells using H-Leu-NHMec as substrate at less than 500 nM preincubated for 10 mins followed by substrate addition by spectrofluorimetric analysis

SMILES	Ki [1] [nM]	Ki [2] [nM]	EC50 (Plasmodium falciparum [3]) [nM]	further results
O=C(CSc1ccccc1)NC(C(=O)NO)c1ccc(-c2cc(F)c(F)c(F)c2)cc1 (stereo not given)	238	195	430	
CC(C)NC(=O)NC(C(=O)NO)c1ccc(-c2cc(F)c(F)c(F)c2)cc1 (stereo not given)	120	> 500	285	
COc1ccc(NCC(=O)NC(C(=O)NO)c2ccc(-c3cc(F)c(F)c(F)c3)cc2)cc1 (stereo not given)	> 500	> 500		
O=C(CSc1ccccc1)NC(C(=O)NO)c1ccc(Br)cc1 (stereo not given)	287	68	230	
CC(C)(N)C(=O)NC(C(=O)NO)c1ccc(-c2cc(F)c(F)c(F)c2)cc1 (stereo not given)	> 500	227	1200	
CC(C)(N)CC(=O)NC(C(=O)NO)c1ccc(-c2cc(F)c(F)c(F)c2)cc1 (stereo not given)	28	320	1350	
O=C(CNc1ccc(F)c(F)c1)NC(C(=O)NO)c1ccc(Br)cc1 (stereo not given)	> 500	> 500		
CC(C)(C)CC(=O)NC(C(=O)NO)c1ccc(-c2cc(F)c(F)c(F)c2)cc1 (stereo not given)			63	Ki [4]: 269 nM; solubility kinetic at 0.5 h [5]: 12.5 µg/mL (≈ 31.7 µM); Ki [6]: 101 nM; half-life [7]: 1.5 h; solubility kinetic at 0.5 h [8]: 12.5 µg/mL (≈ 31.7 µM); half-life [9]: 2.48 h
O=C(NC(C(=O)NO)c1ccc(-c2cc(F)c(F)c(F)c2)cc1)C1CCCN1 (stereo not given)	> 500	330	625	
CC(C)(O)CC(=O)NC(C(=O)NO)c1ccc(-c2cc(F)c(F)c(F)c2)cc1 (stereo not given)	90	154	155	
O=C(NC(C(=O)NO)c1ccc(-c2cc(F)c(F)c(F)c2)cc1)C1CCOC1 (stereo not given)	307	259	605	
O=C(CNc1ccccc1)NC(C(=O)NO)c1ccc(Cl)cc1 (stereo not given)	> 500	79	200	
O=C(CNc1ccccc1F)NC(C(=O)NO)c1ccc(Br)cc1 (stereo not given)	> 500	26	155	
O=C(CNc1cc(F)cc(F)c1)NC(C(=O)NO)c1ccc(-c2cc(F)c(F)c(F)c2)cc1 (stereo not given)	> 500	131	675	Ki [10]: 513 nM
O=C(CNc1ccc(F)c(F)c1)NC(C(=O)NO)c1ccc(-c2cc(F)c(F)c(F)c2)cc1 (stereo not given)	> 500	> 500		
O=C(NC(C(=O)NO)c1ccc(-c2cc(F)c(F)c(F)c2)cc1)C1CCNC1 (stereo not given)	> 500	> 500		
O=C(COc1ccccc1)NC(C(=O)NO)c1ccc(-c2cc(F)c(F)c(F)c2)cc1 (stereo not given)	137	390	1450	
O=C(CNc1cccc(F)c1)NC(C(=O)NO)c1ccc(-c2cc(F)c(F)c(F)c2)cc1 (stereo not given)	> 500	> 500		
CN(C)CC(=O)NC(C(=O)NO)c1ccc(-c2cc(F)c(F)c(F)c2)cc1 (stereo not given)	> 500	185	480	
O=C(CNc1ccccc1)NC(C(=O)NO)c1ccc(Br)cc1 (stereo not given)	> 500	36	175	

SMILES	Ki [1] [nM]	Ki [2] [nM]	EC50 (Plasmodium falciparum [3]) [nM]	further results
CN1CCC1C(=O)NC(C(=O)NO)c1ccc(-c2cc(F)c(F)c(F)c2)cc1 (stereo not given)	> 500	> 500		
CCN(CC)CCCC(C)Nc1ccnc2cc(Cl)ccc12 (stereo not given) [CHLOROQUINE]			33	
O=C(NC(C(=O)NO)c1ccc(-c2cc(F)c(F)c(F)c2)cc1)c1cc2ccccc2[nH]1 (stereo not given)	> 500	> 500		inhibition (Plasmodium falciparum [11]): inactive; inhibition (Plasmodium falciparum [12]): inactive
O=C(NC1CCCC1)NC(C(=O)NO)c1ccc(-c2cc(F)c(F)c(F)c2)cc1 (stereo not given)	122	311	370	
O=C(CNc1ccc2cc[nH]c2c1)NC(C(=O)NO)c1ccc(Br)cc1 (stereo not given)	> 500	35	155	
COc1cccc(NCC(=O)NC(C(=O)NO)c2ccc(-c3cc(F)c(F)c(F)c3)cc2)c1 (stereo not given)	> 500	> 500		
CC(C)(C)NC(=O)NC(C(=O)NO)c1ccc(-c2cc(F)c(F)c(F)c2)cc1 (stereo not given)	430	> 500		
O=C(CNc1ccc(F)cc1)NC(C(=O)NO)c1ccc(Br)cc1 (stereo not given)	> 500	38	250	
O=C(NC(C(=O)NO)c1ccc(-c2cc(F)c(F)c(F)c2)cc1)C1CCO1 (stereo not given)	> 500	203	350	
CN1CC(C(=O)NC(C(=O)NO)c2ccc(-c3cc(F)c(F)c(F)c3)cc2)C1 (stereo not given)	> 500	> 500		
O=C(COc1ccccc1)NC(C(=O)NO)c1ccc(Br)cc1 (stereo not given)	230	> 500	620	
O=C(CN1CCCC1)NC(C(=O)NO)c1ccc(-c2cc(F)c(F)c(F)c2)cc1 (stereo not given)	> 500	456	725	
O=C(CNc1cc(F)cc(F)c1)NC(C(=O)NO)c1ccc(Br)cc1 (stereo not given)	> 500	16	250	
O=C(CNc1ccccc1F)NC(C(=O)NO)c1ccc(-c2cc(F)c(F)c(F)c2)cc1 (stereo not given)	> 500	> 500	285	
CC(C)(C)C(=O)NC(C(=O)NO)c1ccc(-c2cc(F)c(F)c(F)c2)cc1 (stereo not given)			340	
CN(CC(=O)NC(C(=O)NO)c1ccc(-c2cc(F)c(F)c(F)c2)cc1)c1ccccc1 (stereo not given)	> 500	> 500		
O=C(CNc1cccc(F)c1)NC(C(=O)NO)c1ccc(Cl)cc1 (stereo not given)	> 500	49	175	
O=C(CCc1ccccc1)NC(C(=O)NO)c1ccc(Br)cc1 (stereo not given)	14	222	205	
O=C(CNc1cccc(F)c1)NC(C(=O)NO)c1ccc(Br)cc1 (stereo not given)	> 500	21	135	
O=C(NC(C(=O)NO)c1ccc(Br)cc1)c1cc2ccccc2[nH]1 (stereo not given)	> 500	> 500		

SMILES	Ki [1] [nM]	Ki [2] [nM]	EC50 (Plasmodium falciparum [3]) [nM]	further results
O=C(CNc1ccc(F)cc1)NC(C(=O)NO)c1ccc(-c2cc(F)c(F)c(F)c2)cc1 (stereo not given)	> 500	> 500		
CN1CCC(C(=O)NC(C(=O)NO)c2ccc(-c3cc(F)c(F)c(F)c3)cc2)C1 (stereo not given)	> 500	> 500		
CN(C)C(C)(C)C(=O)NC(C(=O)NO)c1ccc(-c2cc(F)c(F)c(F)c2)cc1 (stereo not given)	> 500	> 500		
CN(CC(=O)NC(C(=O)NO)c1ccc(Br)cc1)c1ccccc1 (stereo not given)	> 500	18	145	
CC1(C(=O)NC(C(=O)NO)c2ccc(-c3cc(F)c(F)c(F)c3)cc2)COC1 (stereo not given)	294	439	610	
CN1CCCC1C(=O)NC(C(=O)NO)c1ccc(-c2cc(F)c(F)c(F)c2)cc1 (stereo not given)	> 500	> 500		
O=C(CN1CCCCC1)NC(C(=O)NO)c1ccc(-c2cc(F)c(F)c(F)c2)cc1 (stereo not given)	> 500	> 500		
O=C(CNc1ccc2cc[nH]c2c1)NC(C(=O)NO)c1ccc(-c2cc(F)c(F)c(F)c2)cc1 (stereo not given)	> 500	146	220	
COc1ccccc1NCC(=O)NC(C(=O)NO)c1ccc(Br)cc1 (stereo not given)	> 500	128	145	inhibition (Plasmodium falciparum [12]): inactive
O=C(CN1CCC1)NC(C(=O)NO)c1ccc(-c2cc(F)c(F)c(F)c2)cc1 (stereo not given)	> 500	263	1800	
COc1ccccc1NCC(=O)NC(C(=O)NO)c1ccc(-c2cc(F)c(F)c(F)c2)cc1 (stereo not given)	> 500	> 500		
O=C(CNc1ccc(F)cc1)NC(C(=O)NO)c1ccc(Cl)cc1 (stereo not given)	> 500	49	220	
COc1cccc(NCC(=O)NC(C(=O)NO)c2ccc(Br)cc2)c1 (stereo not given)	> 500	72	102	inhibition (Plasmodium falciparum [12]): inactive
CN(C)C(C)(C)CC(=O)NC(C(=O)NO)c1ccc(-c2cc(F)c(F)c(F)c2)cc1 (stereo not given)	293	500	825	
O=C(NC(C(=O)NO)c1ccc(-c2cc(F)c(F)c(F)c2)cc1)C1CCN1 (stereo not given)	> 500	> 500		
O=C(CCc1ccccc1)NC(C(=O)NO)c1ccc(-c2cc(F)c(F)c(F)c2)cc1 (stereo not given)	70	246	460	
O=C(NC(C(=O)NO)c1ccc(-c2cc(F)c(F)c(F)c2)cc1)C1CNC1 (stereo not given)	> 500	> 500		
COc1ccc(NCC(=O)NC(C(=O)NO)c2ccc(Br)cc2)cc1 (stereo not given)	> 500	88	114	inhibition (Plasmodium falciparum [12]): inactive
